One test deals with MT4. The test can be described thus: Compound was tested in vitro for inhibition of spread of viral infection in MT-4 human T-lymphoid cells infected with the IIIb isolate. It counts as functional. As to conditions: read-out: CIC95.
Test [1] concerns the target Human immunodeficiency virus type 1 protease (Human immunodeficiency virus 1, UniProt Q72874). The test can be described thus: In vitro inhibitory concentration to prevent cleavage of a substrate by the protease enzyme.

pIC50: −log10 of the molar value.

As a reminder, the pIC50 is −log10 of the IC50, conventionally taken in molar units. A high value points to a small IC50.

Regarding `CC(C)(C)NC(=O)[C@@H]1CN(Cc2cccnc2)CCN1C[C@@H](O)C[C@@H](Cc1ccccc1)C(=O)N[C@H]1c2ccccc2C[C@H]1O` [INDINAVIR], the IC95 in the test with MT4 was determined as 50.5 nM. The compound `CC(C)(C)NC(=O)[C@@H]1CN(Cc2ccc(Cl)c(Cl)c2)CCN1C[C@@H](O)C[C@@H](Cc1ccccc1)C(=O)N[C@H]1c2ccccc2C[C@H]1O` gave a negative-log IC50 (pIC50) in test [1] of 8.96. Besides, the IC95 with MT4 worked out at 200 nM. For `CC(C)(C)NC(=O)[C@@H]1CN(S(C)(=O)=O)CCN1C[C@@H](O)C[C@@H](Cc1ccccc1)C(=O)N[C@H]1c2ccccc2C[C@H]1O`, in that order: 8.80 and 400 nM.

These data come from ChEMBL document CHEMBL1133226, “Combinatorial diversification of indinavir: in vivo mixture dosing of an HIV protease inhibitor library” (Bioorg Med Chem Lett, 2000).
